Measurements published in US10174038B2, “Compounds and methods for antiviral treatment” (Gilead Sciences, Inc., priority 2012, dated 2019).

system: RSV strain A2; assay: RSV antiviral activity, in vitro cytoprotection assay in Hep2 cells; format: cell-based, Respiratory Syncytial Virus (RSV); conditions: human respiratory syncytial virus, HEp-2; 0.5 μM compound; RSV-induced cytopathic effect in Hep2 cells; % inhibition calculated from fitted 4-parameter dose response curve, normalized to 0% and 100%; read-out: Percent inhibition at 0.5 μM
Description: Antiviral activity against RSV was determined using an in vitro cytoprotection assay in Hep2 cells. […] The method used was similar to methods previously described in published literature (Chapman et al., Antimicrob Agents Chemother. 2007, 51(9):3346-53.)
Hep2 cells were obtained from ATCC (Manassas, Va.) and maintained in MEM media supplemented with 10% fetal bovine serum and penicillin/streptomycin. Cells were passaged twice a week and kept at subconfluent stage. Commercial stock of RSV strain A2 (Advanced Biotechnologies, Columbia, Md.) was titered before compound testing to determine the appropriate dilution of the virus stock that generated desirable cytopathic effect in Hep2 cells.
For antiviral tests, Hep2 cells were seeded into 96-well plates 24 hours before the assay at a density of 3,000 cells/well. On a separate 96 well plate, compounds to be tested were serially diluted in cell culture media. Eight concentrations in 3-fold serial dilution increments were prepared for each tested compound and 100 uL/well of each dilution was transferred in duplicate onto plates with seeded Hep2 cells. Subsequently, appropriate dilution of virus stock previously determined by titration was prepared in cell culture media and 100 uL/well was added to test plates containing cells and serially diluted compounds. Each plate included three wells of infected untreated cells and three wells of uninfected cells that served as 0% and 100% virus inhibition control, respectively. Following the infection with RSV, testing plates were incubated for 4 days in a tissue culture incubator. After the incubation, RSV-induced cytopathic effect was determined using a Cell TiterGlo reagent (Promega, Madison, Wis.) followed by a luminescence read-out. The percentage inhibition was calculated for each tested concentration relative to the 0% and 100% inhibition controls and the EC50 value for each compound was determined by non-linear regression as a concentration inhibiting the RSV-induced cytopathic effect by 50%. Ribavirin (purchased from Sigma, St. Louis, Mo.) was used as a positive control for antiviral activity.
Compounds were also tested for antiviral activity against RSV in Hep2 cells using a 384 well format. Compounds were diluted in DMSO using a 10-step serial dilution in 3-fold increments via automation in 4 adjacent replicates each. Eight compounds were tested per dilution plate. 0.4 uL of diluted compounds were then stamped via Biomek into 384-well plates (Nunc 142761 or 164730 w/lid 264616) containing 20 μL of media (Mediatech Inc. MEM supplemented with Glutamine, 10% FBS and Pen/Strep). DMSO and a suitable positive control compound, such as 80 μM GS-329467 or 10 μM 427346 was used for the 100% and 0% cell killing controls, respectively.
Hep2 cells (1.0×10^5 cells/ml) were prepared as above in batch to at least 40 mls excess of the number of sample plates (8 mls cell mix per plate) and infected with vendor supplied (ABI) RSV strain A2 to arrive at an MOI of 1:1000 (virus:cell #) or 1:3000 (vol virus:cell vol). Immediately after addition of virus, the RSV infected Hep2 cell suspension was added to each stamped 384-well plate at 20 μl per well using a uFlow dispenser, giving a final volume of 40 μL/well, each with 2000 infected cells. The plates were then incubated for 5 days at 37° C. and 5% CO2. Following incubation, the plates were equilibrated to room temperature in a biosafety cabinet hood for 1.5 hrs and 40 μL of Cell-Titer Glo viability reagent (Promega) was added to each well via uFlow. Following a 10-20 minute incubation, the plates were read using an EnVision or Victor Luminescence plate reader (Perkin-Elmer). The data was then uploaded and analyzed on the Bioinformatics portal under the RSV Cell Infectivity and 8-plate EC50-Hep2-384 or 8-plate EC50-Hep2-Envision protocols. […]

Question: With `CS(=O)(=O)Nc1ccc(Cl)cc1C(=O)N1CCCC[C@H]1c1cc2nc(N3CCC3)cc(N3CCNC(C#N)C3)n2n1` (some centres unmarked) [Compound 43] as the compound, how does the inhibition at 0.5 µM read?
Answer: 100%

Question: How did the inhibition at 0.5 µM turn out when `COc1ccc(Cl)cc1C(=O)N1CCCC[C@H]1c1cc2nc(N3CC[C@H](N)C3)c(C)cn2n1` [Compound 10] was run?
Answer: 100%

Question: With `Cc1cc(C)n2nc(C3CCCCN3C(=O)c3cc(Cl)ccc3NS(C)(=O)=O)nc2n1` (centres unmarked) [Compound 113] as the compound, how does the inhibition at 0.5 µM read?
Answer: 16%

Question: With `Cc1cc(C2CC2)nc2cc([C@@H]3CCCCN3C(=O)c3cc(Cl)ccc3N)nn12` [Compound 77] as the compound, how does the inhibition at 0.5 µM read?
Answer: 94%

Question: `CN1CCN(c2cc(N3CC(N)C3)nc3cc([C@@H]4CCCCN4C(=O)c4cc(Cl)ccc4NS(C)(=O)=O)nn23)CC1` [Compound 53] was tested. Which inhibition at 0.5 µM did it give?
Answer: 99%

Question: How did the inhibition at 0.5 µM turn out when `Cc1cn2nc([C@@H]3CCCCN3C(=O)c3ccccc3)cc2nc1N1CC[C@H](N)C1` [Compound 5] was run?
Answer: 100%

Question: With `Cc1cn2nc([C@@H]3CCCCN3C(=O)[C@](C)(NS(C)(=O)=O)c3ccccc3)cc2nc1N1CC[C@H](N)C1` [Compound 27] as the compound, how does the inhibition at 0.5 µM read?
Answer: 100%

Question: How did the inhibition at 0.5 µM turn out when `CS(=O)(=O)Nc1ccc(Cl)cc1C(=O)N1CCCC[C@H]1c1cc2nc(N3CCC3)cc(N3CCN[C@@H](CO)C3)n2n1` [Compound 19] was run?
Answer: 100%

Question: For `COC(=O)N[C@H](C(=O)N1CCCC[C@H]1c1cc2nc(N3CC[C@H](N)C3)c(C)cn2n1)C1CC1` [Compound 102], which inhibition at 0.5 µM is on record?
Answer: 99%

Question: How did the inhibition at 0.5 µM turn out when `CNc1c(C)c(C)nc2cc([C@@H]3CCCCN3C(=O)c3cc(Cl)cc(C)c3NS(C)(=O)=O)nn12` [Compound 25] was run?
Answer: 97%

Question: With `Cc1cn2nc([C@@H]3CCCCN3C(=O)c3ncccc3Cl)cc2nc1N1CC[C@H](N)C1` [Compound 18] as the compound, how does the inhibition at 0.5 µM read?
Answer: 100%

Question: For `Cc1cn2nc([C@@H]3CCCCN3C(=O)c3cc(Cl)ccc3CN)cc2nc1N1CC[C@H](N)C1` [Compound 37], which inhibition at 0.5 µM is on record?
Answer: 100%

Question: With `O=C(c1cc(Cl)ccc1NS(=O)(=O)CC(F)(F)F)N1CCCC[C@H]1c1cc2nc(N3CCC3)cc(N3CCNCC3)n2n1` [Compound 55] as the compound, how does the inhibition at 0.5 µM read?
Answer: 98%

Question: For `CS(=O)(=O)Nc1ccc(Cl)cc1C(=O)N1CCCC[C@H]1c1cc2nc(N3CCC3)cc(N3CCCC(N)C3)n2n1` (some centres unmarked) [Compound 70], which inhibition at 0.5 µM is on record?
Answer: 100%

Question: `Cc1cn2nc([C@@H]3CCCCN3C(=O)c3cccc(C(F)(F)F)n3)cc2nc1N1CC[C@H](N)C1` [Compound 67] was tested. Which inhibition at 0.5 µM did it give?
Answer: 99%

Question: For `Cc1ccc(NS(C)(=O)=O)c(C(=O)N2CCCC[C@H]2c2cn3nc(N4CC[C@H](N)C4)c(C)cc3n2)c1` [Compound 115], which inhibition at 0.5 µM is on record?
Answer: 100%

Question: With `CS(=O)(=O)Nc1ccc(Cl)cc1C(=O)N1CCCC[C@H]1c1cc2ccc(N3CCC3)nn2c1` [Compound 111] as the compound, how does the inhibition at 0.5 µM read?
Answer: 56%

Question: For `Cc1cn2nc([C@@H]3CCCCN3C(=O)c3cc(Cl)ccc3NS(C)(=O)=O)cc2nc1N1CC[C@H](CN)C1` [Compound 21], which inhibition at 0.5 µM is on record?
Answer: 100%

Question: With `CS(=O)(=O)Nc1ccc(Cl)cc1C(=O)N1CCCC[C@H]1c1cn2nc(N3C[C@@H](C#N)[C@@H](O)C3)ccc2n1` [Compound 118] as the compound, how does the inhibition at 0.5 µM read?
Answer: 100%

Question: How did the inhibition at 0.5 µM turn out when `CS(=O)(=O)Nc1ccc(Cl)cc1C(=O)N1CCCC[C@H]1c1cc2nc(N3CCCC3)cc(N3CCOCC3)n2n1` [Compound 90] was run?
Answer: 100%

Question: How did the inhibition at 0.5 µM turn out when `Cc1cccnc1C(=O)N1CCCC[C@H]1c1cc2nc(N3CC[C@H](N)C3)c(C)cn2n1` [Compound 6] was run?
Answer: 100%

Question: For `Cc1ccc(NS(C)(=O)=O)c(C(=O)N2CCCC[C@H]2c2nc3cc(C)cc(C)n3n2)c1` [Compound 110], which inhibition at 0.5 µM is on record?
Answer: 60%

Question: `Cc1cn2nc([C@@H]3CCCCN3C(=O)c3cc(Cl)ccc3NS(C)(=O)=O)cc2nc1N1CCC[C@H](N)C1` [Compound 88] was tested. Which inhibition at 0.5 µM did it give?
Answer: 89%

Question: For `CS(=O)(=O)Nc1ccc(Cl)cc1C(=O)N1CCCC[C@H]1c1cc2nc(N3CC[C@H](O)C3)cc(N3CCOCC3)n2n1` [Compound 96], which inhibition at 0.5 µM is on record?
Answer: 90%

Question: With `Cc1cn2nc([C@@H]3CCCCN3C(=O)C(NS(C)(=O)=O)c3ccccc3Cl)cc2nc1N1CC[C@H](N)C1` (some centres unmarked) [Compound 34] as the compound, how does the inhibition at 0.5 µM read?
Answer: 100%

Question: For `Cc1cc(C2CC2)nc2cc([C@@H]3CCCCN3C(=O)c3cc(Cl)cc(F)c3NS(C)(=O)=O)nn12` [Compound 29], which inhibition at 0.5 µM is on record?
Answer: 90%

Question: How did the inhibition at 0.5 µM turn out when `Cc1ccc(NS(C)(=O)=O)c(C(=O)N2CCCC[C@H]2c2cc3cc(C)cc(C)n3n2)c1` [Compound 105] was run?
Answer: 96%

Question: With `CC(=O)Nc1ccc(C)cc1C(=O)N1CCCC[C@H]1c1cc2nc(N3CCC[C@H](N)C3)c(C)cn2n1` [Compound 86] as the compound, how does the inhibition at 0.5 µM read?
Answer: 84%

Question: With `CS(=O)(=O)Nc1ccc(Cl)cc1C(=O)N1CCCC[C@H]1c1cn2nc(N3CC[C@H](N)C3)ccc2n1` [Compound 117] as the compound, how does the inhibition at 0.5 µM read?
Answer: 100%

Question: `Cc1ccncc1C(=O)N1CCCC[C@H]1c1cc2nc(N3CC[C@H](N)C3)c(C)cn2n1` [Compound 7] was tested. Which inhibition at 0.5 µM did it give?
Answer: 100%

Question: For `CN(C)[C@@H]1CCN(c2cc(N3CCC3)nc3cc([C@@H]4CCCCN4C(=O)c4cc(Cl)ccc4NS(C)(=O)=O)nn23)C1` [Compound 72], which inhibition at 0.5 µM is on record?
Answer: 100%

Question: How did the inhibition at 0.5 µM turn out when `Cc1cn2nc([C@@H]3CCCCN3C(=O)c3cc(Cl)ccc3NC(=O)C(F)F)cc2nc1N1CC[C@H](N)C1` [Compound 65] was run?
Answer: 100%

Question: `Cc1cc2nc([C@@H]3CCCCN3C(=O)c3cc(Cl)ccc3NS(C)(=O)=O)cn2nc1N1CC[C@H](N)C1` [Compound 107] was tested. Which inhibition at 0.5 µM did it give?
Answer: 100%

Question: How did the inhibition at 0.5 µM turn out when `Cc1cn2nc([C@@H]3CCCCN3C(=O)c3cc(Cl)ccc3NC(=O)N(C)C)cc2nc1N1CC[C@H](N)C1` [Compound 64] was run?
Answer: 100%

Question: Which inhibition at 0.5 µM does the source give for `CNC1CCN(c2cc(N3CCOCC3)n3nc([C@@H]4CCCCN4C(=O)c4cc(Cl)ccc4NS(C)(=O)=O)cc3n2)C1` (some centres unmarked) [Compound 94] here?
Answer: 89%

Question: For `Cc1nc2cc([C@@H]3CCCCN3C(=O)c3cc(F)cc(Cl)c3NS(C)(=O)=O)nn2c(C)c1C` [Compound 32], which inhibition at 0.5 µM is on record?
Answer: 85%

Question: With `Cc1cn2nc([C@@H]3CCCCN3C(=O)C(NS(C)(=O)=O)c3ccccc3Cl)cc2nc1N1C[C@@H](C#N)[C@@H](O)C1` (some centres unmarked) [Compound 22] as the compound, how does the inhibition at 0.5 µM read?
Answer: 100%

Question: How did the inhibition at 0.5 µM turn out when `Cc1cn2nc([C@@H]3CCCCN3C(=O)c3cc4ccccc4[nH]3)cc2nc1N1CC[C@H](N)C1` [Compound 17] was run?
Answer: 96%

Question: For `Cc1cc(N2CC[C@H](N)C2)nc2cc([C@@H]3CCCCN3C(=O)c3cc(Cl)ccc3NS(C)(=O)=O)nn12` [Compound 44], which inhibition at 0.5 µM is on record?
Answer: 100%

Question: How did the inhibition at 0.5 µM turn out when `CC(=O)Nc1ccc(C)cc1C(=O)N1CCCC[C@H]1c1cc2nc(N3CC(NC(=O)OC(C)(C)C)C3)c(C)cn2n1` [Compound 87] was run?
Answer: 89%

Question: How did the inhibition at 0.5 µM turn out when `CN(C)c1cc(N2CCOCC2)n2nc([C@@H]3CCCCN3C(=O)c3cc(Cl)ccc3NS(C)(=O)=O)cc2n1` [Compound 92] was run?
Answer: 98%

Question: For `Cc1cn2nc([C@@H]3CCCCN3C(=O)c3cc(Cl)ccc3NC(=O)OCC(F)(F)F)cc2nc1N1CC[C@H](N)C1` [Compound 63], which inhibition at 0.5 µM is on record?
Answer: 100%

Question: Which inhibition at 0.5 µM does the source give for `Cc1nc2cc([C@@H]3CCCCN3C(=O)c3cc(Cl)ccc3NS(C)(=O)=O)nn2c(N2CCC2)c1C` [Compound 78] here?
Answer: 99%

Question: For `Cc1cn2nc([C@@H]3CCCCN3C(=O)c3cc(Cl)ccc3CNS(C)(=O)=O)cc2nc1N1CC[C@H](N)C1` [Compound 36], which inhibition at 0.5 µM is on record?
Answer: 100%

Question: `O=C(c1ccccc1C(F)(F)F)N1CCCC[C@H]1c1cc2nc(N3CC(O)C3)cc(N3CC(O)C3)n2n1` [Compound 50] was tested. Which inhibition at 0.5 µM did it give?
Answer: 100%

Question: For `Cc1ccc(N2CCCS2(=O)=O)c(C(=O)N2CCCC[C@H]2c2cc3nc(N4CC[C@H](N)C4)c(C)cn3n2)c1` [Compound 11], which inhibition at 0.5 µM is on record?
Answer: 100%

Question: Which inhibition at 0.5 µM does the source give for `Cc1cc(C2CC2)nc2cc([C@@H]3CCCCN3C(=O)c3cc(F)ccc3NS(C)(=O)=O)nn12` [Compound 75] here?
Answer: 100%
